Measured values published in ChEMBL document CHEMBL1131716, “Heterocycle-peptide hybrid compounds. Aminotriazole-containing agonists of the thrombin receptor (PAR-1)” (Bioorg Med Chem Lett, 1999).
Where a SMILES comes first, the peptide text is derived from it. [ ]: non-standard residue; d: D form. The star is where a group is joined. Cha = N[C@@H](CC1CCCCC1)C(=O)O; Nicotinoyl = O=C(c1cccnc1)*; 3Abz = Nc1cccc(C(=O)O)c1; 4Abz = Nc1ccc(C(=O)O)cc1; βAla = NCCC(=O)O

Columns and labels:
[1] = molecular target: T1, Proteinase-activated receptor 1 (Homo sapiens, UniProt P25116); test: Inhibition of [3H]S-(p-F-Phe)-Har-L-Har-KY-NH2 binding to thrombin receptor (PAR-1) on membranes from CHRF cells; format: cell membranes
T1 sequence (P25116 whole entry): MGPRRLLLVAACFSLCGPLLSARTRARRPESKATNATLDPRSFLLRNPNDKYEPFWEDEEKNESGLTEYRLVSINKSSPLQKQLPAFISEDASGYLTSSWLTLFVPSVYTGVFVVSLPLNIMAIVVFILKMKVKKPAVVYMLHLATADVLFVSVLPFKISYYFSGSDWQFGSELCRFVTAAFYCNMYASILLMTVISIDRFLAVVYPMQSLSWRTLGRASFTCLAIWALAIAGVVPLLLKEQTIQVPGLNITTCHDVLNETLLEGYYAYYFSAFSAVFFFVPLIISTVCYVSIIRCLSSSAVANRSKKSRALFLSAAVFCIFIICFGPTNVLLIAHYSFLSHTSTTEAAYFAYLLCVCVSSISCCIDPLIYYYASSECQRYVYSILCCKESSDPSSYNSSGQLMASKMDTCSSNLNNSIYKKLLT

[2] = molecular target: T2, Proteinase-activated receptor 1 (Homo sapiens) (UniProt P25116); test: Evaluated for activation of human platelet aggregation (gel-filtered platelets) induced by alpha thrombin at 50 uM; format: functional
T2 sequence (whole entry): T1 sequence (P25116 whole entry)

[3] = molecular target: T1, Proteinase-activated receptor 1; test: Inhibition of [3H]S-(p-F-Phe)-Har-L-Har-KY-NH2 binding to Thrombin receptor 1 (PAR-1) on membranes from CHRF cells; format: cell membranes
[4] = species on record: Homo sapiens; test: Antagonist activity by using human gel-filtered platelet aggregation; format: functional

SMILES | IC50 [1] [µM] | percent activation of platelet aggregation [2] [%] | also measured
N=C(N)NCCC[C@H](NC(=O)[C@H](CC1CCCCC1)NC(=O)C1=COc2ccccc2O1)C(=O)N[C@@H](Cc1ccccc1)C(N)=O | 16 | < 20 | 
CC(C)C[C@H](NC(=O)[C@H](CC(C)C)NC(=O)[C@H](Cc1ccccc1)NC(=O)[C@@H](N)CO)C(=O)N[C@@H](CCCN=C(N)N)C(=O)N[C@@H](CC(N)=O)C(N)=O | 0.55 |  | 
N=C(N)NCCC[C@H](NC(=O)[C@H](CC1CCCCC1)NC(=O)c1n[nH]c(N)n1)C(=O)N[C@@H](Cc1ccccc1)C(N)=O | 1.9 |  | 
N=C(N)NCCC[C@H](NC(=O)[C@H](CC1CCCCC1)NC(=O)/C=C/c1ccccc1)C(=O)N[C@@H](Cc1ccccc1)C(N)=O | 5 | 20 | 
N=C(N)NCCC[C@H](NC(=O)[C@H](CC1CCCCC1)NC(=O)c1ccoc1)C(=O)N[C@@H](Cc1ccccc1)C(N)=O | 25 | 38 | 
N=C(N)NCCC[C@H](NC(=O)[C@H](CC1CCCCC1)NC(=O)c1ccncc1)C(=O)N[C@@H](Cc1ccccc1)C(N)=O | 7 | 26 | 
N=C(N)NCCC[C@H](NC(=O)[C@H](CC1CCCCC1)NC(=O)c1cc2ccccc2o1)C(=O)N[C@@H](Cc1ccccc1)C(N)=O |  |  | IC50 [3]: 3 µM
N=C(N)NCCC[C@H](NC(=O)[C@H](CC1CCCCC1)NC(=O)c1ccc(-c2ccccc2)cc1)C(=O)N[C@@H](Cc1ccccc1)C(N)=O | 13 | 56 | 
N=C(N)NCCC[C@H](NC(=O)[C@H](CC1CCCCC1)NC(=O)c1csnn1)C(=O)N[C@@H](Cc1ccccc1)C(N)=O | 9.4 |  | 
NCCCC[C@H](NC(=O)[C@H](CC1CCCCC1)NC(=O)c1n[nH]c(N)n1)C(=O)N[C@@H](Cc1ccccc1)C(N)=O | 5.4 |  | 
N=C(N)NCCC[C@H](NC(=O)[C@H](CC1CCCCC1)NC(=O)c1cc(=O)c2ccccc2o1)C(=O)N[C@@H](Cc1ccccc1)C(N)=O | 1.6 |  | 
N=C(N)NCCC[C@H](NC(=O)[C@H](CC1CCCCC1)NC(=O)CCN)C(=O)N[C@@H](Cc1ccccc1)C(N)=O (H-[βAla][Cha]RF-NH2) | 9 |  | 
N=C(N)NCCC[C@H](NC(=O)[C@H](CC1CCCCC1)NC(=O)c1cccnc1N)C(=O)N[C@@H](Cc1ccccc1)C(N)=O | 2.3 |  | 
N=C(N)NCCC[C@H](NC(=O)[C@H](CC1CCCCC1)NC(=O)c1n[nH]c(NC(=O)/C=C/c2cccc([N+](=O)[O-])c2)n1)C(=O)N[C@@H](Cc1ccccc1)C(N)=O |  |  | IC50 [3]: 8.5 µM
N=C(N)NCCC[C@H](NC(=O)[C@H](CC1CCCCC1)NC(=O)c1ccc(N)cc1)C(=O)N[C@@H](Cc1ccccc1)C(N)=O (H-[4Abz][Cha]RF-NH2) | 2.9 | 40 | 
N=C(N)NCCC[C@H](NC(=O)[C@H](CC1CCCCC1)NC(=O)c1nnc(N)[nH]1)C(=O)N[C@H](C(N)=O)c1ccccc1 | 7 |  | 
N=C(N)NCCC[C@H](NC(=O)[C@H](CC1CCCCC1)NC(=O)c1n[nH]c(NC(=O)/C=C/c2ccc(Cl)cc2)n1)C(=O)N[C@@H](Cc1ccccc1)C(N)=O |  |  | IC50 [3]: 1.4 µM
N=C(N)NCCC[C@H](NC(=O)[C@H](CC1CCCCC1)NC(=O)c1n[nH]c(NC(=O)/C=C/c2cccs2)n1)C(=O)N[C@@H](Cc1ccccc1)C(N)=O | 4.4 |  | 
N=C(N)NCCC[C@H](NC(=O)[C@H](CC1CCCCC1)NC(=O)/C=C/c1cccnc1)C(=O)N[C@@H](Cc1ccccc1)C(N)=O | 5.5 |  | 
N=C(N)NCCC[C@H](NC(=O)[C@H](CC1CCCCC1)NC(=O)c1cnc(Cl)c(Cl)c1)C(=O)N[C@@H](Cc1ccccc1)C(N)=O |  | 32 | IC50 [3]: 2.6 µM
N=C(N)NCCC[C@H](NC(=O)[C@H](CC1CCCCC1)NC(=O)c1n[nH]c(NC(=O)/C=C/c2c[nH]c3ccccc23)n1)C(=O)N[C@@H](Cc1ccccc1)C(N)=O | 100 |  | 
N=C(N)NCCC[C@H](NC(=O)[C@H](CC1CCCCC1)NC(=O)c1cccnc1)C(=O)N[C@@H](Cc1ccccc1)C(N)=O (Nicotinoyl-[Cha]-Arg-Phe-NH2) | 1.3 |  | 
N=C(N)NCCC[C@H](NC(=O)[C@H](CC1CCCCC1)NC(=O)c1n[nH]c(NC(=O)/C=C/c2ccc(C(F)(F)F)cc2)n1)C(=O)N[C@@H](Cc1ccccc1)C(N)=O |  |  | IC50 [3]: 30 µM
N=C(N)NCCC[C@H](NC(=O)[C@H](CC1CCCCC1)NC(=O)c1n[nH]c(NC(=O)/C(F)=C/c2ccccc2)n1)C(=O)N[C@@H](Cc1ccccc1)C(N)=O |  |  | IC50 [4]: 28 µM

SMILES | IC50 [1] [µM] | percent activation of platelet aggregation [2] [%] | also measured
N=C(N)NCCC[C@H](NC(=O)[C@H](CC1CCCCC1)NC(=O)c1ccc[nH]1)C(=O)N[C@@H](Cc1ccccc1)C(N)=O | 10 | 55 | 
N=C(N)NCCC[C@H](NC(=O)[C@H](CC1CCCCC1)NC(=O)c1ccc(N)nc1)C(=O)N[C@@H](Cc1ccccc1)C(N)=O | 2 |  | 
N=C(N)NCCC[C@H](NC(=O)[C@H](CC1CCCCC1)NC(=O)c1ccc2c(c1)-c1ccccc1-2)C(=O)N[C@@H](Cc1ccccc1)C(N)=O | 2.4 |  | 
C[C@H](NC(=O)c1n[nH]c(N)n1)C(=O)N[C@@H](CCCN=C(N)N)C(=O)N[C@@H](Cc1ccccc1)C(N)=O | 46 | < 20 | 
N=C(N)NCCC[C@H](NC(=O)[C@H](CC1CCCCC1)NC(=O)C1C=CC=NC1=O)C(=O)N[C@@H](Cc1ccccc1)C(N)=O (stereo partly specified) | 16 | 26 | 
N=C(N)NCCC[C@H](NC(=O)[C@H](Cc1ccccc1)NC(=O)c1ccc2[nH]cnc2c1)C(=O)N[C@@H](Cc1ccccc1)C(N)=O | 4 |  | 
N=C(N)NCCC[C@H](NC(=O)[C@H](CC1CCCCC1)NC(=O)c1n[nH]c(N)n1)C(=O)N[C@@H](Cc1c[nH]cn1)C(N)=O | 27 | < 20 | 
N=C(N)NCCC[C@H](NC(=O)[C@H](CC1CCCCC1)NC(=O)c1cc2ccccc2[nH]1)C(=O)N[C@@H](Cc1ccccc1)C(N)=O | 56 | 21 | 
COc1ccc(/C=C/C(=O)Nc2n[nH]c(C(=O)N[C@@H](CC3CCCCC3)C(=O)N[C@@H](CCCN=C(N)N)C(=O)N[C@@H](Cc3ccccc3)C(N)=O)n2)cc1 |  |  | IC50 [3]: 4 µM
N=C(N)NCCC[C@H](NC(=O)[C@H](CC1CCCCC1)NC(=O)c1cc2ccccc2s1)C(=O)N[C@@H](Cc1ccccc1)C(N)=O | 2.3 |  | 
NCCC(=O)N[C@@H](CC1CCCCC1)C(=O)N[C@@H](CCCN=C(N)N)C(=O)N[C@@H](Cc1ccccc1)C(N)=O (H-[βAla][Cha]RF-NH2) |  | 30 | 
N=C(N)NCCC[C@H](NC(=O)[C@H](CC1CCCCC1)NC(=O)c1n[nH]c(NC(=O)/C=C/c2ccc(F)cc2)n1)C(=O)N[C@@H](Cc1ccccc1)C(N)=O |  |  | IC50 [3]: 1.2 µM
N=C(N)NCCC[C@H](NC(=O)[C@H](CC1CCCCC1)NC(=O)c1ccc(Cl)nc1)C(=O)N[C@@H](Cc1ccccc1)C(N)=O | 2.4 |  | 
N=C(N)NCCC[C@H](NC(=O)[C@H](CC1CCCCC1)NC(=O)c1cnc2ccccc2n1)C(=O)N[C@@H](Cc1ccccc1)C(N)=O | 3.1 |  | 
C[C@H](NC(=O)[C@H](CC1CCCCC1)NC(=O)c1n[nH]c(N)n1)C(=O)N[C@@H](Cc1ccccc1)C(N)=O | 18 | < 20 | 
N=C(N)NCCC[C@H](NC(=O)[C@H](CC1CCCCC1)NC(=O)c1n[nH]c(NC(=O)/C=C/c2ccccc2[N+](=O)[O-])n1)C(=O)N[C@@H](Cc1ccccc1)C(N)=O | 1.6 |  | 
N=C(N)NCCC[C@H](NC(=O)[C@H](CC1CCCCC1)NC(=O)c1nnc(N)[nH]1)C(=O)N[C@@H](Cc1cccs1)C(N)=O | 4 |  | 
N=C(N)NCCC[C@H](NC(=O)[C@H](CC1CCCCC1)NC(=O)c1cccc(N)c1)C(=O)N[C@@H](Cc1ccccc1)C(N)=O (H-[3Abz][Cha]RF-NH2) | 2 |  | 
N=C(N)NCCC[C@H](NC(=O)[C@H](CC1CCCCC1)NC(=O)c1nccnc1N)C(=O)N[C@@H](Cc1ccccc1)C(N)=O | 8.5 |  | 
N=C(N)NCCC[C@H](NC(=O)[C@H](CC1CCCCC1)NC(=O)c1n[nH]c(NC(=O)/C=C/c2cccc(Cl)c2)n1)C(=O)N[C@@H](Cc1ccccc1)C(N)=O |  |  | IC50 [3]: 15 µM
N=C(N)NCCC[C@H](NC(=O)[C@H](Cc1ccccc1)NC(=O)c1nnc(N)[nH]1)C(=O)N[C@@H](Cc1ccccc1)C(N)=O | 2 |  | 
N=C(N)NCCC[C@H](NC(=O)[C@H](CC1CCCCC1)NC(=O)c1cccnc1Cl)C(=O)N[C@@H](Cc1ccccc1)C(N)=O | 7.6 | < 20 | 
N=C(N)NCCC[C@H](NC(=O)[C@H](CC1CCCCC1)NC(=O)c1ccccn1)C(=O)N[C@@H](Cc1ccccc1)C(N)=O | 4.4 |  | 
